Results taken from patent US9278982B2, “Targeting human thymidylate kinase induces DNA repair toxicity in malignant tumor cells” (NATIONAL YANG-MING UNIVERSITY, priority 2010, dated 2016).
“Also recorded” adds a separate entry of the source.

What was measured:
[1] = tested on: panel of cell lines; test: Doxorubicin sensitization, MTS viability assay, summary over the panel of cell lines; format: cell-based, human; settings: all these cell lines; 72 h pre-treatment
Procedure: (§1) FIG. 16. In vitro and in vivo effect of YMU1 on doxorubicin sensitization. (A) A panel of cell lines were pre-treated with vehicle, YMU1 (compound 21), D6 (ethyl 4-(2-chloroacetyl)piperazine-1-carboxylate) or D7 (compound 28) for 3 days and were exposed to different concentration of doxorubicin for 4 h. […] The enhancement (fold) of doxorubicin sensitivity in each cell line was calculated. Data represent mean±s.d., n=3; each experiment was quadruplex. Inset indicates the IC50 value of doxorubicin in various cell lines. […] Following overnight culture, cells were refreshed with growth medium. After 14 days of culture, colonies were fixed, stained by crystal violet and counted. (C) HCT-116 p53^−/− cells were subcutaneously implanted in the right flank of Balb/c nude mice (each experimental group n=8). Arrow indicated the time of stopping drug treatment. The tumor volume was estimated as described in Methods of the Invention section. (D) After 2 weeks recovered from treatment, mice were sacrificed for tumor weight measurement. Data represent mean±s.e.m; **, P<0.01 by a two-tailed Student's t-test. (E) Ki 67 proliferation marker staining of tumor shown in left panel. Scale bar, 50 μm. (F) Model of doxorubicin sensitization by YMU1 in malignant cancer cells. Both R2/R1 and TMPK are recruited to the site of doxorubicin-induced double-strand breaks, where dATP, dGTP, dCTP, dTTP and dUTP are site-specific synthesized. Inhibition of TMPK decreases dTTP formation at DNA damage sites, causing futile DNA repair due to dUTP incorporation.
(§2) Next, various human cancer cell lines were treated with YMU1, D6 or D7 for 72 h to test the potential of TMPK inhibitor in doxorubicin sensitization. After exposure to different concentration of doxorubicin for 4 h, cells were refreshed for viability analysis after 2 days and the IC50 value for doxorubicin in each of the cell lines was determined (FIG. 16A and Table 2).
The ability of YMU1 to sensitize non-tumorigenic mammary cycling H184B5F5/M10, MCF10A, primary human mammary epithelial (HMEC) and primary renal epithelial (HREC) cells and IMR-90 embryonic lung fibroblasts to doxorubicin was much weaker.
(§3) Cells plated into a 96-well plate (10^3 cells/well) were treated and cell viability was measured by MTS assay (Promega) (Cory et al., 1991). An annexin V-fluorescein isothiocyanate (FITC) apoptosis kit (Calbiochem) was used to detect apoptosis. The cell cycle analysis was performed by staining cells with propidium iodide (PI) for fluorescence-activated cell sorter (FACS) analysis with CellQuest software.

[2] = target: T1, TMPK (Homo sapiens, UniProt P23919); test: Luciferase-coupled TMPK assay; format: biochemical; parameters: GST (N, cleaved yes); made in house; host or cells: E. coli JM109 (pGEX-2T-hTMPK); settings: purified hTMPK protein (0.5 μg), 10 min preincubation
T1 sequence (P23919 1-212): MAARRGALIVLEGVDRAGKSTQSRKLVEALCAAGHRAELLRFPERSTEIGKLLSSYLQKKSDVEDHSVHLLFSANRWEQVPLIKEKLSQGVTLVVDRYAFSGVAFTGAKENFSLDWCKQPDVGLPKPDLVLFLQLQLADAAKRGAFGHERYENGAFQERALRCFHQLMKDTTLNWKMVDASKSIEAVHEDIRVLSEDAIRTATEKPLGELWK
Procedure: FIG. 12. Identification of a novel hTMPK inhibitor. (A) A screen of TMPK inhibitor by luciferase-coupled assay. (B) The chemical structures of YMU1 (compound 21) and related molecules. (C) Effect of YMU1 and derivative compounds on hTMPK inhibition using purified hTMPK protein (0.5 μg) with 10 min preincubation prior to reaction using luciferase-coupled TMPK analysis. (D) Effect of YMU1 on activity of purified TMPK (0.5 μg) and GST-hTK1 protein (5 μg) with 10 min preincubation prior to reaction. Data represent mean±s.d. (n=4) (E) Molecular models of the TMPK-YMU1 complex. Left panel: TMPK/ATP/Mg+2; right panel: TMPK/YMU1. The TMPK is represented in surface electrostatic potential (upper) and structural ribbon (lower). ATP and YMU1 are shown in green and blue stick, respectively, with colored atom (O, red; S, yellow; P, orange). TMP is shown in white backbone and Mg+2 in purple. Arrow indicates the position of Asp15.
Based on the functional requirement of TMPK in DNA repair specifically in tumor cells with elevated level of R2 expression, we searched for inhibitors of hTMPK that might be useful in selectively sensitizing tumor cells to doxorubicin. […] The synthetic procedure and structural elucidation of YMU1 (compound 21) are described in the Methods of the Invention section of the application.
The TMPK reaction was started by adding purified hTMPK in 50 μl of TMPK assay buffer (100 mM Tris-HCl, pH 7.5, 100 mM KCl, 10 mM MgCl2, 50 μM ATP and 100 μM dTMP) in 96 wells plate at 25° C. for 10 min and terminated by adding 200 μl of DTNB (100 μM), followed by transferring 10 μl of reaction solution to a white 96-wellplate containing 90 μl of luciferase assay buffer (50 mM Glycine, 0.5 mM EDTA and 5 mM EDTA, pH 7.0, 0.1 μg of luciferase, 50 μM luciferin and 0.1% BSA). The luminescence was measured with a luminescence counter (Packard).

[3] = target: T1, TMPK; test: In vitro TMPK inhibitory activity of TMPK inhibitor derivatives (inhibition yield); format: biochemical; parameters: GST (N, cleaved yes); made in house; host or cells: E. coli JM109 (pGEX-2T-hTMPK), inferred; settings: 2 μM; n=3 or 6; read-out: inhibition yield, normalized to compound 21 (YMU1) = 100%
Source text: Chemical structures of the different TMPK inhibitor derivatives tested for in vitro TMPK inhibitory activity and in vivo doxorubicin sensitization activity (in MDA-MB231 cells) are depicted below.

[4] = tested on: MDA-MB231; test: Doxorubicin sensitization, MTS viability assay; format: cell-based, human; settings: MDA-MB231 cell treatment, compound at 2 μM
Procedure: as §1, §2, §3

[5] = tested on: HCT-116p53−/−; test: Doxorubicin sensitization, MTS viability assay; format: cell-based, human; settings: Homo sapiens, vehicle 72 h, doxorubicin 4 h, viability after 2 days, read-out: IC50 of doxorubicin treatment, Vehicle
Procedure: as §1, §2, §3

[6] = tested on: HMEC; test: Doxorubicin sensitization, MTS viability assay; format: cell-based, human; settings: Homo sapiens, vehicle 72 h, doxorubicin 4 h, viability after 2 days, read-out: IC50 of doxorubicin treatment, Vehicle
Procedure: as §1, §2, §3

[7] = tested on: HCT-116p53+/+; test: Doxorubicin sensitization, MTS viability assay; format: cell-based, human; settings: Homo sapiens, vehicle 72 h, doxorubicin 4 h, viability after 2 days, read-out: IC50 of doxorubicin treatment, Vehicle
Procedure: as §1, §2, §3

[8] = tested on: U2OS; test: Doxorubicin sensitization, MTS viability assay; format: cell-based, human; settings: Homo sapiens, vehicle 72 h, doxorubicin 4 h, viability after 2 days, read-out: IC50 of doxorubicin treatment, Vehicle
Procedure: as §1, §2, §3

[9] = tested on: MDA-MB468; test: Doxorubicin sensitization, MTS viability assay; format: cell-based, human; settings: Homo sapiens, MDA-MB-468, vehicle 72 h, doxorubicin 4 h, viability after 2 days, read-out: IC50 of doxorubicin treatment, Vehicle
Procedure: as §1, §2, §3

[10] = tested on: CL-1-0; test: Doxorubicin sensitization, MTS viability assay; format: cell-based, human; settings: Homo sapiens, CL1-0, vehicle 72 h, doxorubicin 4 h, viability after 2 days, read-out: IC50 of doxorubicin treatment, Vehicle
Procedure: as §1, §2, §3

[11] = tested on: HT-29; test: Doxorubicin sensitization, MTS viability assay; format: cell-based, human; settings: Homo sapiens, vehicle 72 h, doxorubicin 4 h, viability after 2 days, read-out: IC50 of doxorubicin treatment, Vehicle
Procedure: as §1, §2, §3

[12] = tested on: IMR-90; test: Doxorubicin sensitization, MTS viability assay; format: cell-based, human; settings: Homo sapiens, vehicle 72 h, doxorubicin 4 h, viability after 2 days, read-out: IC50 of doxorubicin treatment, Vehicle
Procedure: as §1, §2, §3

[13] = tested on: H1299; test: Doxorubicin sensitization, MTS viability assay; format: cell-based, human; settings: Homo sapiens, NCI-H1299, vehicle 72 h, doxorubicin 4 h, viability after 2 days, read-out: IC50 of doxorubicin treatment, Vehicle
Procedure: as §1, §2, §3

[14] = tested on: HREC; test: Doxorubicin sensitization, MTS viability assay; format: cell-based, human; settings: Homo sapiens, vehicle 72 h, doxorubicin 4 h, viability after 2 days, read-out: IC50 of doxorubicin treatment, Vehicle
Procedure: as §1, §2, §3

[15] = tested on: MCF-10A; test: Doxorubicin sensitization, MTS viability assay; format: cell-based, human; settings: Homo sapiens, vehicle 72 h, doxorubicin 4 h, viability after 2 days, read-out: IC50 of doxorubicin treatment, Vehicle
Procedure: as §1, §2, §3

[16] = tested on: SaoS2; test: Doxorubicin sensitization, MTS viability assay; format: cell-based, human; settings: Homo sapiens, SAOS-2, vehicle 72 h, doxorubicin 4 h, viability after 2 days, read-out: IC50 of doxorubicin treatment, Vehicle
Procedure: as §1, §2, §3

[17] = tested on: Capan1; test: Doxorubicin sensitization, MTS viability assay; format: cell-based, human; settings: Homo sapiens, CAPAN-1, vehicle 72 h, doxorubicin 4 h, viability after 2 days, read-out: IC50 of doxorubicin treatment, Vehicle
Procedure: as §1, §2, §3

[18] = tested on: HCC1037; test: Doxorubicin sensitization, MTS viability assay; format: cell-based, human; settings: Homo sapiens, vehicle 72 h, doxorubicin 4 h, viability after 2 days, read-out: IC50 of doxorubicin treatment, Vehicle
Procedure: as §1, §2, §3

[19] = tested on: H184B5F5/M10; test: Doxorubicin sensitization, MTS viability assay; format: cell-based, human; settings: Homo sapiens, vehicle 72 h, doxorubicin 4 h, viability after 2 days, read-out: IC50 of doxorubicin treatment, Vehicle
Procedure: as §1, §2, §3

Compound: CCOC(=O)N1CCN(C(=O)CI)CC1 [D6, ethyl 4-(2-iodoacetyl)piperazine-1-carboxylate]
- doxorubicin sensitization effect [1]: had no doxorubicin sensitization effect
- inhibition against hTMPK [2]: Neither D6 (as the piperazine fragment of YMU1) nor D7 (as the O-alkylation isomer of YMU1) showed any inhibition; also recorded: do not inhibit TMPK

Compound: Cc1cc(C)c2c(=O)[nH]sc2n1 [compound 4, 4,6-Dimethylisothiazolo[5,4-b]pyridin-3(2H)-one]
- inhibition at 2 µM [3]: 28%
- inhibition against hTMPK ([2]; listed as D3): weak inhibitory activity; also recorded: do not inhibit TMPK

Compound: COC(=O)Cn1sc2nc(C)cc(C)c2c1=O [compound 7, Methyl 2-(4,6-dimethyl-3-oxoisothiazolo[5,4-b]pyridin-2(3H)-yl)acetate]
- inhibition at 2 µM [3]: 98.3%
- melting point: 89 to 91 °C

Compound: O=C(Cn1sc2ccccc2c1=O)N1CCNCC1 [compound 10, 2-(2-Oxo-2-(piperazin-1-yl)ethyl)benzo[d]isothiazol-3(2H)-one]
- enhancement on doxorubicin sensitization [4]: had no effect
- inhibition at 2 µM [3]: 96.8%
- inhibition against hTMPK [2]: considerable inhibitory function

Compound: CC(C)(C)OC(=O)N1CCN(C(=O)Cn2sc3ccccc3c2=O)CC1 [compound 12, Tert-butyl 4-(2-(3-oxobenzo[d]isothiazol-2(3H)-yl)acetyl)piperazine-1-carboxylate]
- enhancement on doxorubicin sensitization [4]: 30 fold
- inhibition at 2 µM [3]: 124%

Compound: Cc1cc(C)c2c(=O)n(CC(=O)N3CCOCC3)sc2n1 [compound 19, 4,6-Dimethyl-2-(2-morpholino-2-oxoethyl)isothiazolo[5,4-b]pyridin-3(2H)-one]
- enhancement on doxorubicin sensitization [4]: had no effect
- inhibition at 2 µM [3]: 100%

Compound: Cc1cc(C)c2c(OCC(=O)O)nsc2n1 [compound 26, 2-(4,6-Dimethylisothiazolo[5,4-b]pyridin-3-yloxy)acetic acid]
- inhibition at 2 µM [3]: 16.4%

Compound: Cc1cc(C)c2c(OCC(=O)N3CCOCC3)nsc2n1 [compound 27, 2-(4,6-Dimethylisothiazolo[5,4-b]pyridin-3-yloxy)-1-morpholinoethanone]
- inhibition at 2 µM [3]: 16%
- melting point: 153 to 155 °C

Compound: CCOC(=O)N1CCN(C(=O)COc2nsc3nc(C)cc(C)c23)CC1 [compound 28, Ethyl 4-(2-(4,6-dimethylisothiazolo[5,4-b]pyridin-3-yloxy)acetyl)piperazine-1-carboxylate]
- doxorubicin sensitization effect [1]: had no doxorubicin sensitization effect
- inhibition at 2 µM [3]: 14.7%
- melting point: 88 to 90 °C
- inhibition against hTMPK ([2]; listed as D7): Neither D6 (as the piperazine fragment of YMU1) nor D7 (as the O-alkylation isomer of YMU1) showed any inhibition; also recorded: do not inhibit TMPK

Compound: COc1cccc2c1C(=O)c1c(O)c3c(c(O)c1C2=O)C[C@@](O)(C(=O)CO)C[C@@H]3O[C@H]1C[C@H](N)[C@H](O)[C@H](C)O1 [doxorubicin, reference compound]
- IC50 [5]: 4.1 ± 0.01 µM
- IC50 [6]: 23.6 ± 1.23 µM
- IC50 [7]: 2.66 ± 0.49 µM
- IC50 [8]: 4.58 ± 0.14 µM
- IC50 [9]: 0.25 ± 0.08 µM
- IC50 [10]: 4.9 ± 0.2 µM
- IC50 [11]: 12.1 ± 1.64 µM
- IC50 [12]: 14.2 ± 3.21 µM
- IC50 [13]: 7.19 ± 0.77 µM
- IC50 [14]: 22.1 ± 1.18 µM
- IC50 [15]: 5.22 ± 0.39 µM
- IC50 [16]: 7.83 ± 0.02 µM
- IC50 [17]: 1.13 ± 0.02 µM
- IC50 [18]: 5.52 ± 0.39 µM
- IC50 [19]: 4.15 ± 0.06 µM
